Data published in ChEMBL document CHEMBL5360590, “Phyllospongianes A-E, Dinorscalarane Sesterterpenes from the Marine Sponge Phyllospongia foliascens” (J Nat Prod, 2023).
In brackets after ≈: the same amount, converted by molar mass.

Columns and labels:
[1] = system: Pseudomonas aeruginosa; assay: Antibacterial activity against Pseudomonas aeruginosa assessed as bacterial growth inhibition; format: functional
[2] = Cytotoxicity against human Enzalutamide-resistant LNCaP C4-2 cells assessed as reduction in cell viability by CCK-8 assay; format: functional, cell-based
[3] = system: HT-29; assay: Cytotoxicity against human HT-29 cells assessed as reduction in cell viability by CCK-8 assay; format: functional, cell-based
[4] = system: MCF7; assay: Cytotoxicity against human MCF7 cells assessed as reduction in cell viability by CCK-8 assay; format: functional, cell-based
[5] = system: Escherichia coli; assay: Antibacterial activity against Escherichia coli assessed as bacterial growth inhibition; format: functional
[6] = system: NCI-H460; assay: Cytotoxicity against human NCI-H460 cells assessed as reduction in cell viability by CCK-8 assay; format: functional, cell-based
[7] = system: Bacillus subtilis; assay: Antibacterial activity against Bacillus subtilis assessed as bacterial growth inhibition; format: functional
[8] = system: Enterococcus faecalis; assay: Antibacterial activity against Enterococcus faecalis assessed as bacterial growth inhibition; format: functional
[9] = system: Vibrio parahaemolyticus; assay: Antibacterial activity against Vibrio parahaemolyticus assessed as bacterial growth inhibition; format: functional
[10] = system: Vibrio vulnificus; assay: Antibacterial activity against Vibrio vulnificus assessed as bacterial growth inhibition; format: functional
[11] = system: HepG2; assay: Cytotoxicity against human HepG2 cells assessed as reduction in cell viability by CCK-8 assay; format: functional, cell-based
[12] = system: MDA-MB-231; assay: Cytotoxicity against human MDA-MB-231 cells assessed as reduction in cell viability by CCK-8 assay; format: functional, cell-based

Structure (SMILES) | MIC [1] [µg/mL] | IC50 [2] [µM] | IC50 [3] [µM] | IC50 [4] [µM] | MIC [5] [µg/mL] | IC50 [6] [µM] | MIC [7] [µg/mL] | MIC [8] [µg/mL] | MIC [9] [µg/mL] | MIC [10] [µg/mL] | IC50 [11] [µM] | IC50 [12] [µM]
CC[C@@]1(C)CCC[C@]2(C)[C@H]3C[C@H](OC(=O)CCC(C)C)[C@]4(C)C(C(=O)O)=CC[C@H]4[C@]3(C)CC[C@@H]12 | 4 (≈ 8.46 µM) | 3.7 | 13.2 | 12.3 | 8 (≈ 16.9 µM) | 11 | 2 (≈ 4.23 µM) | 4 (≈ 8.46 µM) | 2 (≈ 4.23 µM) | 4 (≈ 8.46 µM) | 20.1 | > 50
CC[C@@]1(C)CCC[C@]2(C)[C@H]3C[C@H](OC(=O)C[C@H](O)C(C)C)[C@]4(C)C(C=O)=CC[C@H]4[C@]3(C)CC[C@@H]12 | > 64 | 0.7 | 1.2 | 1.1 | > 64 | 2 | 8 (≈ 16.9 µM) | > 64 | > 64 | > 64 | 9.6 | 13.2
CCCCC(=O)O[C@H]1C[C@@H]2[C@@]3(C)CCC[C@](C)(CC)[C@@H]3CC[C@@]2(C)[C@@H]2CC=C(C(=O)O)[C@@]12C | 32 (≈ 69.8 µM) | 11.2 | 18 | 15.3 | 32 (≈ 69.8 µM) | 13 | 16 (≈ 34.9 µM) | 16 (≈ 34.9 µM) | 16 (≈ 34.9 µM) | 64 (≈ 140 µM) | > 50 | > 50
CCCCC(=O)O[C@H]1C[C@@H]2[C@@]3(C)CCC[C@](C)(CC)[C@@H]3CC[C@@]2(C)[C@@H]2CC=C(C=O)[C@@]12C | 4 (≈ 9.04 µM) | 5.7 | 8.7 | 7.3 | 8 (≈ 18.1 µM) | 10.2 | 2 (≈ 4.52 µM) | 4 (≈ 9.04 µM) | 4 (≈ 9.04 µM) | 4 (≈ 9.04 µM) | 32.1 | > 50
CC[C@@]1(C)CCC[C@]2(C)[C@H]3C[C@H](OC(=O)CCC(C)C)[C@]4(C)C(C=O)=CC[C@H]4[C@]3(C)CC[C@@H]12 | 4 (≈ 8.76 µM) | 1.7 | 4.7 | 3.5 | 8 (≈ 17.5 µM) | 7.2 | 1 (≈ 2.19 µM) | 4 (≈ 8.76 µM) | 2 (≈ 4.38 µM) | 2 (≈ 4.38 µM) | 19.3 | 32.3
Cn1nnc2c(C(N)=O)ncn2c1=O [TEMOZOLOMIDE] |  | 18.2 |  |  |  |  |  |  |  |  | 5.9 | 14.4
C[C@H]1COc2c(N3CCN(C)CC3)c(F)cc3c(=O)c(C(=O)O)cn1c23 [LEVOFLOXACIN ANHYDROUS] | 0.25 (≈ 0.692 µM) |  |  |  | 0.25 (≈ 0.692 µM) |  | 0.25 (≈ 0.692 µM) | 0.25 (≈ 0.692 µM) | 0.5 (≈ 1.38 µM) | 0.5 (≈ 1.38 µM) |  | 
